The record followed here is patent US8865182B2 (priority 2009, dated 2014).

One assay concerns HLA-B7 supertype (B*0702, B*3501, B*5101, B*5301, B*5401). Format: binding, human.
On to “SPQLEGFSA (Influenza Virus) [SEQ ID NO: 196]”, for which the “# Alleles Bound” value was 2.

Regarding LPRRSGAAGA [SEQ ID NO: 132], the “# Alleles Bound” value came out at 2.

As for “NPALRMKWM (Influenza Virus) [SEQ ID NO: 299]”, the “# Alleles Bound” value was determined as 1.

As to “MPAHGPAKSM (Influenza Virus) [SEQ ID NO: 258]”, the “# Alleles Bound” value is listed as 4.

On to RPCFWVELI [SEQ ID NO: 106], for which the “# Alleles Bound” value amounted to 1.

With “APPEQSRMQF (Influenza Virus) [SEQ ID NO: 305]”, the “# Alleles Bound” value is on record as 1.

For “GPALSINEL (Influenza Virus) [SEQ ID NO: 306]”, the “# Alleles Bound” value is reported as 1.

As for SPGMMMGMF [SEQ ID NO: 256], the “# Alleles Bound” value was found to be 1.

For IPKRNRSIL [SEQ ID NO: 259], the “# Alleles Bound” value amounted to 1.

For the sequence LPFHNVHPL [SEQ ID NO: 67], the “# Alleles Bound” value worked out at 5.

In the case of “NPRMFLAMI (Influenza Virus) [SEQ ID NO: 252]”, the “# Alleles Bound” value was determined as 1.

For the sequence “GPVHFRNQV (Influenza Virus) [SEQ ID NO: 301]”, the “# Alleles Bound” value was found to be 1.

On to “APSPYNSRF (Influenza Virus) [SEQ ID NO: 103]”, for which the “# Alleles Bound” value stood at 2.

On to “LPACVYGLAV (Influenza Virus) [SEQ ID NO: 133]”, for which the “# Alleles Bound” value was determined as 4.

Take “YPKVYKTYF (Influenza Virus) [SEQ ID NO: 300]”: the “# Alleles Bound” value was 2.

Consider “VPASRYLTDM (Influenza Virus) [SEQ ID NO: 147]”, for which the “# Alleles Bound” value came to 2.

With “SPYNSRFESV (Influenza Virus) [SEQ ID NO: 104]”, the “# Alleles Bound” value is 3.

With “FPNEVGARIL (Influenza Virus) [SEQ ID NO: 302]”, the “# Alleles Bound” value is given as 5.

Regarding “APPKQSRMQF (Influenza Virus) [SEQ ID NO: 304]”, the “# Alleles Bound” value was found to be 1.

As to “GPATAQMAL (Influenza Virus) [SEQ ID NO: 257]”, the “# Alleles Bound” value was determined as 2.

On to “FPSSSYRRPV (Influenza Virus) [SEQ ID NO: 260]”, for which the “# Alleles Bound” value worked out at 4.

For the sequence “APFSKDNSI (Influenza Virus) [SEQ ID NO: 102]”, the “# Alleles Bound” value is 1.

For the sequence “RPWVSFNQNL (Influenza Virus) [SEQ ID NO: 105]”, the “# Alleles Bound” value came out at 1.

As for “IPAEMLASI (Influenza Virus) [SEQ ID NO: 255]”, the “# Alleles Bound” value amounted to 4.

A further assay has as its system HLA-A24 supertype (A*2301, A*2402, A*2902, A*3002). Format: binding, human.
Turning to “SWPDGANINF (Influenza Virus) [SEQ ID NO: 101]”, the “# Alleles Bound” value turned out to be 2.

Consider FYIQMCTEL [SEQ ID NO: 128], for which the “# Alleles Bound” value is recorded as 2.

For the sequence “HMMIWHSNL (Influenza Virus) [SEQ ID NO: 129]”, the “# Alleles Bound” value is given as 3.

Consider MFLAMITYI [SEQ ID NO: 245], for which the “# Alleles Bound” value is recorded as 2.

Regarding “EWLKTRPIL (Influenza Virus) [SEQ ID NO: 75]”, the “# Alleles Bound” value is on record as 2.

In the case of “CFMYSDFHF (Influenza Virus) [SEQ ID NO: 190]”, the “# Alleles Bound” value was determined as 3.

Consider WMMAMKYPI [SEQ ID NO: 295], for which the “# Alleles Bound” value stood at 2.

Regarding “LYNKMEFEPF (Influenza Virus) [SEQ ID NO: 297]”, the “# Alleles Bound” value is reported as 2.

On to “LYASPQLEGF (Influenza Virus) [SEQ ID NO: 194]”, for which the “# Alleles Bound” value is on record as 2.

For “IYRRFKYGL (Influenza Virus) [SEQ ID NO: 85]”, the “# Alleles Bound” value is on record as 2.

On to “FMQALQLLF (Influenza Virus) [SEQ ID NO: 159]”, for which the “# Alleles Bound” value turned out to be 3.

Consider “FFLTQGALL (Influenza Virus) [SEQ ID NO: 98]”, for which the “# Alleles Bound” value is 3.

For the sequence “EYIMKGVYI (Influenza Virus) [SEQ ID NO: 192]”, the “# Alleles Bound” value is reported as 2.

As to “IFLARSALI (Influenza Virus) [SEQ ID NO: 130]”, the “# Alleles Bound” value was determined as 2.

Take “KFAAICTHL (Influenza Virus) [SEQ ID NO: 189]”: the “# Alleles Bound” value is reported as 2.

With “FYRYGFVANF (Influenza Virus) [SEQ ID NO: 248]”, the “# Alleles Bound” value is 2.

On to “HYPKVYKTYF (Influenza Virus) [SEQ ID NO: 296]”, for which the “# Alleles Bound” value worked out at 2.

On to “MYQKCCNLF (Influenza Virus) [SEQ ID NO: 250]”, for which the “# Alleles Bound” value is 2.

With SYINRTGTF [SEQ ID NO: 247], the “# Alleles Bound” value is 3.

Take “VFVIREPFI (Influenza Virus) [SEQ ID NO: 97]”: the “# Alleles Bound” value came to 2.

As for “FFENKSETW (Influenza Virus) [SEQ ID NO: 193]”, the “# Alleles Bound” value was determined as 2.

Take WMACHSAAF [SEQ ID NO: 131]: the “# Alleles Bound” value turned out to be 2.

“SWPDGANIPF (Influenza Virus) [SEQ ID NO: 100]”: the “# Alleles Bound” value came out at 2.

Consider “LWILDRLFF (Influenza Virus) [SEQ ID NO: 84]”, for which the “# Alleles Bound” value was 3.

With “WWTSNSIIVF (Influenza Virus) [SEQ ID NO: 99]”, the “# Alleles Bound” value is on record as 2.

“RYTKTTYWW (Influenza Virus) [SEQ ID NO: 246]”: the “# Alleles Bound” value stood at 2.

As for “KFEEIRWLI (Influenza Virus) [SEQ ID NO: 158]”, the “# Alleles Bound” value is 2.

For the sequence SYLIRALTL [SEQ ID NO: 244], the “# Alleles Bound” value was 2.

As to “MYQKCCTLF (Influenza Virus) [SEQ ID NO: 251]”, the “# Alleles Bound” value was determined as 3.

The subject of another assay is HLA-A1 supertype (A*101, A*2601, A*2902, A*3002). The class given is binding, human.
In the case of “KISPLMVAY (Influenza Virus) [SEQ ID NO: 266]”, the “# Alleles Bound” value worked out at 2.

Take “GMIDGWYGY (Influenza Virus) [SEQ ID NO: 63]”: the “# Alleles Bound” value amounted to 2.

With “RMFLAMITY (Influenza Virus) [SEQ ID NO: 208]”, the “# Alleles Bound” value is listed as 2.

Consider “WSQDPTMLY (Influenza Virus) [SEQ ID NO: 270]”, for which the “# Alleles Bound” value was 4.

Consider TFEFTSFFY [SEQ ID NO: 212], for which the “# Alleles Bound” value worked out at 3.

As for “SSLENFRAY (Influenza Virus) [SEQ ID NO: 166]”, the “# Alleles Bound” value was found to be 1.

As to “STVHYPKVY (Influenza Virus) [SEQ ID NO: 265]”, the “# Alleles Bound” value was determined as 2.

Regarding “GMQIRGFVY (Influenza Virus) [SEQ ID NO: 207]”, the “# Alleles Bound” value is 2.

Take GTEKLTITY [SEQ ID NO: 268]: the “# Alleles Bound” value turned out to be 1.

“LTIGECPKY (Influenza Virus) [SEQ ID NO: 62]”: the “# Alleles Bound” value worked out at 3.

Take “NMDRAVKLY (Influenza Virus) [SEQ ID NO: 68]”: the “# Alleles Bound” value is listed as 3.

For “RVSKMGVDEY (Influenza Virus) [SEQ ID NO: 267]”, the “# Alleles Bound” value was 1.

Take “IVAITDWSGY (Influenza Virus) [SEQ ID NO: 88]”: the “# Alleles Bound” value is 1.

As for “KMARLGKGY (Influenza Virus) [SEQ ID NO: 209]”, the “# Alleles Bound” value was found to be 1.
